The values below come from PubChem BioAssay AID328 (DTP/NCI, 2004).

Values joined by “and” are separate entries in the source; they are usually repeats but may differ in a detail not shown here. Identical values can stand only once. Toxic doses and inconclusive results are not listed.

The assay deals with BDF1 mice, P388 leukemia ip, median survival T/C. Description: NCI In Vivo Anticancer Drug Screen. Data for tumor model P388 Leukemia (intraperitoneal) in B6D2F1 (BDF1) mice. As to conditions: endpoint: median survival time, higher = longer survival. In short, it runs like this:
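Mice carrying the transplantable tumour receive compound or vehicle. Survival is followed in each arm, and the treated measure is divided by the vehicle measure.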

The mark [1] stands for this setting: dose: 25.0 mg/kg/injection, schedule: Q04DX003 (ip), vehicle: Klucel (hydroxypropylcellulose) (HPC).
Setting [2] is: dose: 25.0 mg/kg/injection, schedule: Q01DX001 (ip), vehicle: saline with Tween-80.
Where [3] appears, read: dose: 100.0 mg/kg/injection, schedule: Q04DX003 (ip), vehicle: Klucel (hydroxypropylcellulose) (HPC).
[4] abbreviates: dose: 400.0 mg/kg/injection, schedule: Q04DX003 (ip), vehicle: Klucel (hydroxypropylcellulose) (HPC).
Setting [5] is: dose: 50.0 mg/kg/injection, schedule: Q04DX003 (ip), vehicle: Klucel (hydroxypropylcellulose) (HPC).
[6] abbreviates: dose: 100.0 mg/kg/injection, schedule: Q01DX009 (ip), vehicle: saline with Tween-80.
Where [7] appears, read: dose: 50.0 mg/kg/injection, schedule: Q01DX005 (ip), vehicle: saline.
Setting [8] is: dose: 100.0 mg/kg/injection, schedule: Q01DX005 (ip), vehicle: saline.
Where [9] appears, read: dose: 200.0 mg/kg/injection, schedule: Q01DX005 (ip), vehicle: saline.
Setting [10] is: dose: 100.0 mg/kg/injection, schedule: Q04DX003 (ip), vehicle: saline with Tween-80.
Where [11] appears, read: dose: 200.0 mg/kg/injection, schedule: Q04DX003 (ip), vehicle: saline with Tween-80.
[12] abbreviates: dose: 400.0 mg/kg/injection, schedule: Q04DX003 (ip), vehicle: saline with Tween-80.

As to `CCOc1ccc(C(/C(Cl)=N/O)C(Cl)(Cl)Cl)cc1` (stereo not given), the T/C (dose: 5.5 mg/kg/injection, schedule: Q01DX009 (ip), vehicle: Klucel (hydroxypropylcellulose) (HPC)) is 109 % of control; the T/C (dose: 6.25 mg/kg/injection, schedule: Q04DX003 (ip), vehicle: Klucel (hydroxypropylcellulose) (HPC)) was 100 % of control; the T/C (dose: 8.2 mg/kg/injection, schedule: Q01DX009 (ip), vehicle: Klucel (hydroxypropylcellulose) (HPC)) was 100 % of control; the T/C (dose: 12.5 mg/kg/injection, schedule: Q04DX003 (ip), vehicle: Klucel (hydroxypropylcellulose) (HPC)) is 95 % of control; the T/C under setting [1] was 100 % of control; the T/C (dose: 35.0 mg/kg/injection, schedule: Q04DX003 (ip), vehicle: Klucel (hydroxypropylcellulose) (HPC)) is 120 % of control. The T/C reads like this: (dose: 55.0 mg/kg/injection, schedule: Q04DX003 (ip), vehicle: Klucel (hydroxypropylcellulose) (HPC)) 110 % of control; (dose: 80.0 mg/kg/injection, schedule: Q04DX003 (ip), vehicle: Klucel (hydroxypropylcellulose) (HPC)) 110 % of control; (dose: 120.0 mg/kg/injection, schedule: Q04DX003 (ip), vehicle: Klucel (hydroxypropylcellulose) (HPC)) 100 % of control.

For `Cn1c(=O)n(C)c2ccccc21`, the T/C reads like this: (dose: 15.0 mg/kg/injection, schedule: Q01DX001 (ip), vehicle: saline) 90 % of control; under setting [2], 90 % of control and 100 % of control; (dose: 25.0 mg/kg/injection, schedule: Q01DX001 (ip), vehicle: saline) 90 % of control; (dose: 35.0 mg/kg/injection, schedule: Q01DX001 (ip), vehicle: saline) 100 % of control; (dose: 50.0 mg/kg/injection, schedule: Q01DX001 (ip), vehicle: saline with Tween-80) 104 % of control; (dose: 50.0 mg/kg/injection, schedule: Q01DX001 (ip), vehicle: saline) 100 % of control. Further, the T/C runs as follows: (dose: 75.0 mg/kg/injection, schedule: Q01DX001 (ip), vehicle: saline) 90 % of control; (dose: 100.0 mg/kg/injection, schedule: Q01DX001 (ip), vehicle: saline with Tween-80) 90 % of control and 95 % of control; under setting [3], 95 % of control; (dose: 200.0 mg/kg/injection, schedule: Q04DX003 (ip), vehicle: Klucel (hydroxypropylcellulose) (HPC)) 91 % of control; under setting [4], 91 % of control.

Consider `O=[N+]([O-])c1ccc(S(=O)(=O)OCc2ccccc2OS(=O)(=O)c2ccc([N+](=O)[O-])cc2)cc1`, for which the T/C was 109 % of control (dose: 25.0 mg/kg/injection, schedule: Q01DX009 (ip), vehicle: saline with Tween-80); 110 % of control under setting [1]; 114 % of control (dose: 50.0 mg/kg/injection, schedule: Q01DX009 (ip), vehicle: saline with Tween-80); 100 % of control under setting [5]; 114 % of control under setting [6]; 95 % of control under setting [3].

Take `CCCCN(CCCC)CC(O)c1cc(Cl)cc2cccnc12` (stereo not given): the T/C reads like this: (dose: 3.12 mg/kg/injection, schedule: Q01DX009 (ip), vehicle: saline with Tween-80) 100 % of control; (dose: 6.25 mg/kg/injection, schedule: Q01DX009 (ip), vehicle: saline with Tween-80) 104 % of control; (dose: 12.5 mg/kg/injection, schedule: Q01DX009 (ip), vehicle: saline with Tween-80) 108 % of control; (dose: 25.0 mg/kg/injection, schedule: Q01DX009 (ip), vehicle: Klucel (hydroxypropylcellulose) (HPC)) 87 % of control and 92 % of control; under setting [1], 108 % of control; (dose: 50.0 mg/kg/injection, schedule: Q01DX009 (ip), vehicle: Klucel (hydroxypropylcellulose) (HPC)) 100 % of control and 108 % of control. Further, under setting [5], the T/C is 100 % of control.

With `CC[N-]c1nnnn1CC.[Au+].c1ccc([PH+](c2ccccc2)c2ccccc2)cc1`, the T/C (dose: 12.5 mg/kg/injection, schedule: Q01DX001 (ip), vehicle: saline with Tween-80) is 100 % of control and the T/C under setting [2] was 111 % of control.

Take `CC(C)(C)CC(=O)OCCC[N+](C)(C)C`: the T/C is, setting by setting: (dose: 6.25 mg/kg/injection, schedule: Q01DX009 (ip), vehicle: water) 103 % of control; (dose: 12.5 mg/kg/injection, schedule: Q01DX009 (ip), vehicle: water) 119 % of control; (dose: 25.0 mg/kg/injection, schedule: Q01DX009 (ip), vehicle: water) 99 % of control; (dose: 50.0 mg/kg/injection, schedule: Q01DX009 (ip), vehicle: water) 91 % of control.

In the case of `O=C(NC1CCC1C(=O)O)OCc1ccccc1` (stereo not given), the T/C is, setting by setting: (dose: 100.0 mg/kg/injection, schedule: Q04DX002 (ip), vehicle: saline with Tween-80) 101 % of control; (dose: 200.0 mg/kg/injection, schedule: Q04DX002 (ip), vehicle: saline with Tween-80) 104 % of control; (dose: 400.0 mg/kg/injection, schedule: Q04DX002 (ip), vehicle: saline with Tween-80) 110 % of control.

As to `S=c1nc[nH]c2c1ncn2C1CCCC1`, the T/C is, setting by setting: under setting [6], 104 % of control; (dose: 200.0 mg/kg/injection, schedule: Q01DX009 (ip), vehicle: saline with Tween-80) 95 % of control.

Turning to `CCCN(/C=C/C=C/C=[N+](CCC)CCC)CCC`, the T/C (dose: 0.03 mg/kg/injection, schedule: Q01DX009 (ip), vehicle: saline) was 99 % of control; the T/C (dose: 0.05 mg/kg/injection, schedule: Q01DX009 (ip), vehicle: saline) was 104 % of control; the T/C (dose: 0.1 mg/kg/injection, schedule: Q01DX009 (ip), vehicle: saline) is 106 % of control.

Take `CCCCCCCCCCCCCCCOc1ccc(C)cc1`: the T/C (dose: 50.0 mg/kg/injection, schedule: Q04DX003 (ip), vehicle: saline sonified) was 90 % of control; the T/C (dose: 100.0 mg/kg/injection, schedule: Q04DX003 (ip), vehicle: saline sonified) is 100 % of control; the T/C (dose: 200.0 mg/kg/injection, schedule: Q04DX003 (ip), vehicle: saline sonified) was 90 % of control.

Turning to `Cc1ccc(C=C(C(=O)CCN(C)C)C(=O)CCN(C)C)cc1`, the T/C is 87 % of control under setting [7], 109 % of control under setting [8] and 119 % of control under setting [9].

Turning to `CC12CCOC(=O)/C=C/C=C/C(=O)OC3CC4OC5C6OC6(C)CCC5(COC(=O)C1O2)C3(C)C41CO1` (stereo not given), the T/C was 154 % of control (dose: 2.5 mg/kg/injection, schedule: Q01DX009 (ip), vehicle: saline + alcohol) and 157 % of control (dose: 10.0 mg/kg/injection, schedule: Q01DX009 (ip), vehicle: saline + alcohol).

For the compound `O=c1c2ccccc2[nH]c2ccccc12`, the T/C runs as follows: (dose: 50.0 mg/kg/injection, schedule: Q04DX003 (ip), vehicle: saline with Tween-80) 105 % of control; under setting [10], 99 % of control; under setting [11], 99 % of control; under setting [12], 96 % of control.

In the case of `CCOC(=O)C(=O)Cc1sccc1[N+](=O)[O-]`, the T/C by setting is: (dose: 100.0 mg/kg/injection, schedule: Q01DX009 (ip), vehicle: Klucel (hydroxypropylcellulose) (HPC)) 105 % of control; under setting [3], 86 % of control; (dose: 200.0 mg/kg/injection, schedule: Q01DX009 (ip), vehicle: Klucel (hydroxypropylcellulose) (HPC)) 100 % of control; (dose: 400.0 mg/kg/injection, schedule: Q01DX009 (ip), vehicle: Klucel (hydroxypropylcellulose) (HPC)) 105 % of control; under setting [4], 91 % of control.

For the compound `CCOC(=O)C/C(C)=N\NC(=O)c1ccncc1`, the T/C by setting is: (dose: 75.0 mg/kg/injection, schedule: Q01DX009 (ip), vehicle: saline with Tween-80) 88 % of control; (dose: 150.0 mg/kg/injection, schedule: Q01DX009 (ip), vehicle: saline with Tween-80) 102 % of control.

Consider `O=[N+]([O-])c1ccc(-c2nc3ncccn3n2)cc1`, for which the T/C was 90 % of control under setting [10], 100 % of control under setting [11] and 100 % of control under setting [12].

On to `CCCCCCCCCCCCCCCCNC(C)c1ccccc1` (stereo not given), for which the T/C is, setting by setting: (dose: 12.5 mg/kg/injection, schedule: Q04DX003 (ip), vehicle: saline with Tween-80) 101 % of control; (dose: 25.0 mg/kg/injection, schedule: Q04DX003 (ip), vehicle: saline with Tween-80) 106 % of control.

For `CCOC(=O)CNCc1cccc(Br)c1`, the T/C under setting [7] was 104 % of control; the T/C under setting [8] is 106 % of control; the T/C under setting [9] is 98 % of control; the T/C (dose: 400.0 mg/kg/injection, schedule: Q01DX005 (ip), vehicle: saline) was 104 % of control.
